Measured values: article PMC11995216, “End-to-End Backbone Cyclization Enhances Passive Permeability of bRo5 Oligomeric Depsipeptides with Nonlinear Size Dependence” (ACS Medicinal Chemistry Letters, 2025)
Where “and” joins values, the source holds several entries; their conditions need not be identical. Equal values may be shown once. Read-outs that look alike come from different tables or passages of the source. Values belong to the compound of their own block, whether it stands above or below them. Non-standard residues stand in square brackets, D forms with d. Residues, ends and D or L forms follow the SMILES beside them. *: point of attachment. Ahp(2) = CCCCC[C@H](N)C(=O)O; dNMeA = CN[C@H](C)C(=O)O; Boc = CC(C)(C)OC(=O)*; OBn = c1ccc(CO*)cc1

How the values were obtained:
[1] = UV detection
[2] = test system: PAMPA; details: UV detection
[3] = calculated using Supplement Equation 1, UV detection
[4] = initial concentration 500 uM, UV detection
[5] = test system: PAMPA; details: UV detection, initial concentration 500 uM
[6] = in vitro; details: PAMPA, Papp
[7] = PAMPA, 500 uM
[8] = Papp (x 10^-6 cm/s) / experiment 1
[9] = Papp (x 10^-6 cm/s) / experiment 2
[10] = Papp (x 10^-6 cm/s) / experiment 3
[11] = Papp (x 10^-6 cm/s) / experiment 4
[12] = Papp (x 10^-6 cm/s) / experiment 5
[13] = Papp (x 10^-6 cm/s) / experiment 6
[14] = Papp (x 10^-6 cm/s) / experiment 7
[15] = Papp (x 10^-6 cm/s) / experiment 8
[16] = Papp (x 10^-6 cm/s) / experiment 9
[17] = Papp (x 10^-6 cm/s) / experiment 10
[18] = Well 1 / [donor], Well 1, standard curve
[19] = Well 2 / [donor], Well 2, standard curve
[20] = Well 3 / [donor], Well 3, standard curve
[21] = Well 4 / [donor], Well 4, standard curve
[22] = Well 5 / [donor], Well 5, standard curve
[23] = Acceptor Concentration (uM) / experiment 1
[24] = Acceptor Concentration (uM) / experiment 2
[25] = Acceptor Concentration (uM) / experiment 3
[26] = Acceptor Concentration (uM) / experiment 4
[27] = Acceptor Concentration (uM) / experiment 5
[28] = Acceptor Concentration (uM) / experiment 6
[29] = Acceptor Concentration (uM) / experiment 7
[30] = Acceptor Concentration (uM) / experiment 8
[31] = Acceptor Concentration (uM) / experiment 9
[32] = Acceptor Concentration (uM) / experiment 10

% recovery ([1]; Well 1 / %R, Well 1): 83% and 93%
% recovery ([1]; Well 2 / %R, Well 2): 93% and 94%
% recovery ([1]; Well 3 / %R, Well 3): 85% and 86%
% recovery ([1]; Well 4 / %R, Well 4): 86% and 90%
% recovery ([1]; Well 5 / %R, Well 5): 90% and 93%
Papp [2, 8]: 2.29 ×10⁻⁶ cm/s
Papp [2, 9]: 1.55 ×10⁻⁶ cm/s
Papp [2, 10]: 1.77 ×10⁻⁶ cm/s
Papp [2, 11]: 1.78 ×10⁻⁶ cm/s
Papp [2, 12]: 1.56 ×10⁻⁶ cm/s
Papp [2, 13]: 1.9 ×10⁻⁶ cm/s
Papp [2, 14]: 1.61 ×10⁻⁶ cm/s
Papp [2, 15]: 1.79 ×10⁻⁶ cm/s
Papp [2, 16]: 1.89 ×10⁻⁶ cm/s
Papp [2, 17]: 1.94 ×10⁻⁶ cm/s
%T ([3]; Well 1 / %T, Well 1): 0.33% and 0.28%
%T ([3]; Well 2 / %T, Well 2): 0.24% and 0.25%
%T ([3]; Well 3 / %T, Well 3): 0.27%
%T ([3]; Well 4 / %T, Well 4): 0.27% and 0.29%
%T ([3]; Well 5 / %T, Well 5): 0.24% and 0.29%
Papp at 500 uM [6]: 1.81 ± 0.22 ×10⁻⁶ cm/s
Δ % diffusion [7]: ↑4%
SMILES: CCCCC[C@H](OC(=O)[C@@H](C)N(C)C(=O)[C@H](CCCCC)OC(=O)[C@@H](C)N(C)C(=O)[C@H](CCCCC)OC(=O)[C@@H](C)N(C)C(=O)[C@H](CCCCC)OC(=O)[C@@H](C)N(C)C(=O)[C@H](CCCCC)OC(=O)[C@@H](C)N(C)C(=O)OC(C)(C)C)C(=O)OCc1ccccc1 [Compound L1.5]
donor concentration after incubation [4, 18]: 366 µM and 419 µM
donor concentration after incubation [4, 19]: 425 µM and 429 µM
donor concentration after incubation [4, 20]: 387 µM and 389 µM
donor concentration after incubation [4, 21]: 390 µM and 406 µM
donor concentration after incubation [4, 22]: 412 µM and 419 µM
Acceptor Concentration [5, 23]: 50.2 µM
Acceptor Concentration [5, 24]: 38.4 µM
Acceptor Concentration [5, 25]: 40.2 µM
Acceptor Concentration [5, 26]: 40.8 µM
Acceptor Concentration [5, 27]: 37.5 µM
Acceptor Concentration [5, 28]: 47.1 µM
Acceptor Concentration [5, 29]: 40.3 µM
Acceptor Concentration [5, 30]: 41 µM
Acceptor Concentration [5, 31]: 45.3 µM
Acceptor Concentration [5, 32]: 48 µM

% recovery ([1]; Well 1 / %R, Well 1): 86% and 89%
% recovery ([1]; Well 2 / %R, Well 2): 93% and 92%
% recovery ([1]; Well 3 / %R, Well 3): 91% and 85%
% recovery ([1]; Well 4 / %R, Well 4): 86% and 84%
% recovery ([1]; Well 5 / %R, Well 5): 85% and 86%
Papp [2, 8]: 3.86 ×10⁻⁶ cm/s
Papp [2, 9]: 3.52 ×10⁻⁶ cm/s
Papp [2, 10]: 3.52 ×10⁻⁶ cm/s
Papp [2, 11]: 3.49 ×10⁻⁶ cm/s
Papp [2, 12]: 3.18 ×10⁻⁶ cm/s
Papp [2, 13]: 3.34 ×10⁻⁶ cm/s
Papp [2, 14]: 3.62 ×10⁻⁶ cm/s
Papp [2, 15]: 3.46 ×10⁻⁶ cm/s
Papp [2, 16]: 3.83 ×10⁻⁶ cm/s
Papp [2, 17]: 3.57 ×10⁻⁶ cm/s
%T ([3]; Well 1 / %T, Well 1): 0.44% and 0.49%
%T ([3]; Well 2 / %T, Well 2): 0.47% and 0.46%
%T ([3]; Well 3 / %T, Well 3): 0.46%
%T ([3]; Well 4 / %T, Well 4): 0.49% and 0.46%
%T ([3]; Well 5 / %T, Well 5): 0.47% and 0.43%
Papp at 500 uM [6]: 3.54 ± 0.2 ×10⁻⁶ cm/s
LogPapp [7]: -5.45 ± 0.02
Δ % diffusion [7]: ↑3%
SMILES: CCCCC[C@H](OC(=O)[C@@H](C)N(C)C(=O)[C@H](CCCCC)OC(=O)[C@@H](C)N(C)C(=O)[C@H](CCCCC)OC(=O)[C@@H](C)N(C)C(=O)OC(C)(C)C)C(=O)OCc1ccccc1 [Compound L1.3]
donor concentration after incubation [4, 18]: 358 µM
donor concentration after incubation [4, 19]: 382 µM and 379 µM
donor concentration after incubation [4, 20]: 378 µM and 351 µM
donor concentration after incubation [4, 21]: 350 µM and 346 µM
donor concentration after incubation [4, 22]: 351 µM and 360 µM
Acceptor Concentration [5, 23]: 84.1 µM
Acceptor Concentration [5, 24]: 80.7 µM
Acceptor Concentration [5, 25]: 74.5 µM
Acceptor Concentration [5, 26]: 72.5 µM
Acceptor Concentration [5, 27]: 68.1 µM
Acceptor Concentration [5, 28]: 71.8 µM
Acceptor Concentration [5, 29]: 84 µM
Acceptor Concentration [5, 30]: 79 µM
Acceptor Concentration [5, 31]: 81.4 µM
Acceptor Concentration [5, 32]: 75.6 µM

% recovery ([1]; Well 1 / %R, Well 1): 87% and 98%
% recovery ([1]; Well 2 / %R, Well 2): 96% and 95%
% recovery ([1]; Well 3 / %R, Well 3): 97% and 86%
% recovery ([1]; Well 4 / %R, Well 4): 91% and 84%
% recovery ([1]; Well 5 / %R, Well 5): 89% and 95%
Papp [2, 8]: 4.67 ×10⁻⁶ cm/s
Papp [2, 9]: 4.06 ×10⁻⁶ cm/s
Papp [2, 10]: 3.27 ×10⁻⁶ cm/s
Papp [2, 11]: 4.23 ×10⁻⁶ cm/s
Papp [2, 12]: 3.87 ×10⁻⁶ cm/s
Papp [2, 13]: 4.51 ×10⁻⁶ cm/s
Papp [2, 14]: 4.1 ×10⁻⁶ cm/s
Papp [2, 15]: 4.51 ×10⁻⁶ cm/s
Papp [2, 16]: 5.45 ×10⁻⁶ cm/s
Papp [2, 17]: 4.19 ×10⁻⁶ cm/s
%T ([3]; Well 1 / %T, Well 1): 0.56% and 0.55%
%T ([3]; Well 2 / %T, Well 2): 0.51%
%T ([3]; Well 3 / %T, Well 3): 0.44% and 0.55%
%T ([3]; Well 4 / %T, Well 4): 0.52% and 0.62%
%T ([3]; Well 5 / %T, Well 5): 0.49% and 0.52%
Papp at 500 uM [6]: 4.3 ± 0.6 ×10⁻⁶ cm/s
Acceptor Concentration, Ave [7]: 95.2 µM
Δ % diffusion [7]: ↑22%
SMILES: CCCCC[C@H](OC(=O)[C@@H](C)N(C)C(=O)OC(C)(C)C)C(=O)OCc1ccccc1 [Compound L1.1]
donor concentration after incubation [4, 18]: 339 µM and 383 µM
donor concentration after incubation [4, 19]: 384 µM and 381 µM
donor concentration after incubation [4, 20]: 406 µM and 335 µM
donor concentration after incubation [4, 21]: 363 µM and 315 µM
donor concentration after incubation [4, 22]: 360 µM and 379 µM
Acceptor Concentration [5, 23]: 97.9 µM
Acceptor Concentration [5, 24]: 95.4 µM
Acceptor Concentration [5, 25]: 79.7 µM
Acceptor Concentration [5, 26]: 94.3 µM
Acceptor Concentration [5, 27]: 84.7 µM
Acceptor Concentration [5, 28]: 107 µM
Acceptor Concentration [5, 29]: 95.8 µM
Acceptor Concentration [5, 30]: 92.9 µM
Acceptor Concentration [5, 31]: 107 µM
Acceptor Concentration [5, 32]: 97.4 µM

% recovery ([1]; Well 1 / %R, Well 1): 84% and 83%
% recovery ([1]; Well 2 / %R, Well 2): 89%
% recovery ([1]; Well 3 / %R, Well 3): 90% and 91%
% recovery ([1]; Well 4 / %R, Well 4): 90%
% recovery ([1]; Well 5 / %R, Well 5): 82% and 92%
Papp ([2]; Papp (x 10^-6 cm/s) / [row 1]): 2.47 ×10⁻⁶ cm/s
Papp ([2]; Papp (x 10^-6 cm/s) / [row 2]): 2.25 ×10⁻⁶ cm/s
Papp ([2]; Papp (x 10^-6 cm/s) / [row 3]): 2.11 ×10⁻⁶ cm/s
Papp ([2]; Papp (x 10^-6 cm/s) / [row 4]): 2.43 ×10⁻⁶ cm/s
Papp ([2]; Papp (x 10^-6 cm/s) / [row 5]): 2.68 ×10⁻⁶ cm/s
Papp ([2]; Papp (x 10^-6 cm/s) / [row 6]): 3.13 ×10⁻⁶ cm/s
Papp ([2]; Papp (x 10^-6 cm/s) / [row 7]): 2.4 ×10⁻⁶ cm/s
Papp ([2]; Papp (x 10^-6 cm/s) / [row 8]): 2.43 ×10⁻⁶ cm/s
Papp ([2]; Papp (x 10^-6 cm/s) / [row 9]): 2.64 ×10⁻⁶ cm/s
Papp ([2]; Papp (x 10^-6 cm/s) / [row 10]): 2.27 ×10⁻⁶ cm/s
%T ([3]; Well 1 / %T, Well 1): 0.61% and 0.63%
%T ([3]; Well 2 / %T, Well 2): 0.61% and 0.6%
%T ([3]; Well 3 / %T, Well 3): 0.58% and 0.63%
%T ([3]; Well 4 / %T, Well 4): 0.6% and 0.62%
%T ([3]; Well 5 / %T, Well 5): 0.61% and 0.64%
Acceptor Concentration, Ave [7]: 58.3 µM
Δ % diffusion [7]: ↑6%
SMILES: CCCCC[C@H](NC(=O)[C@@H](C)N(C)C(=O)[C@H](CCCCC)NC(=O)[C@@H](C)N(C)C(=O)[C@H](CCCCC)NC(=O)[C@@H](C)N(C)C(=O)[C@H](CCCCC)NC(=O)[C@@H](C)N(C)C(=O)OC(C)(C)C)C(=O)OCc1ccccc1 [Compound L2.5] (Boc-[dNMeA][Ahp(2)][dNMeA][Ahp(2)][dNMeA][Ahp(2)][dNMeA][Ahp(2)]-OBn)
donor concentration after incubation ([4]; Well 1 / [donor], Well 1): 362 µM and 345 µM
donor concentration after incubation ([4]; Well 2 / [donor], Well 2): 391 µM and 386 µM
donor concentration after incubation ([4]; Well 3 / [donor], Well 3): 400 µM and 397 µM
donor concentration after incubation ([4]; Well 4 / [donor], Well 4): 391 µM and 376 µM
donor concentration after incubation ([4]; Well 5 / [donor], Well 5): 351 µM and 405 µM
Acceptor Concentration ([5]; Acceptor Concentration (uM) / [row 1]): 55.5 µM
Acceptor Concentration ([5]; Acceptor Concentration (uM) / [row 2]): 54.4 µM
Acceptor Concentration ([5]; Acceptor Concentration (uM) / [row 3]): 52.1 µM
Acceptor Concentration ([5]; Acceptor Concentration (uM) / [row 4]): 59 µM
Acceptor Concentration ([5]; Acceptor Concentration (uM) / [row 5]): 58.4 µM
Acceptor Concentration ([5]; Acceptor Concentration (uM) / [row 6]): 67.8 µM
Acceptor Concentration ([5]; Acceptor Concentration (uM) / [row 7]): 57.4 µM
Acceptor Concentration ([5]; Acceptor Concentration (uM) / [row 8]): 59.8 µM
Acceptor Concentration ([5]; Acceptor Concentration (uM) / [row 9]): 61.8 µM
Acceptor Concentration ([5]; Acceptor Concentration (uM) / [row 10]): 56.8 µM
